From ChEMBL document CHEMBL1136331, “Photoregulation of deacylation rate of acyl trypsin derived from photoresponsive inverse substrate” (Bioorg Med Chem Lett, 2003)

Legend:
[1] = Kinetic parameter for rate constant of acylation step (k2) was determined
[2] = Ratio of kinetic parameter (k2) to that of kinetic parameter(Ks)
[3] = Kinetic parameter for rate constant of deacylation step (k3) was determined

k2 [1]	k2/Ks [2]	k3 [3]	SMILES
7.75 s⁻¹	164000 M⁻¹ s⁻¹	0.000702 s⁻¹	N=C(N)Nc1ccc(OC(=O)c2ccc(/N=N\c3ccccc3)cc2)cc1
1.06 s⁻¹	151000 M⁻¹ s⁻¹	0.000378 s⁻¹	N=C(N)Nc1ccc(OC(=O)c2ccc(/N=N/c3ccccc3)cc2)cc1
